Drawing on BindingDB's records for patent US20240033370 (Bolt Biotherapeutics, 2024), this text covers EC50 for 1 compound.

The structures appear in SMILES notation. pEC50: −log10 of the molar value.

One may read the pEC50 as −log10 of the EC50, conventionally taken in molar units.

In the assay the target is T1, Toll-like receptor 7 (Homo sapiens, UniProt Q9NYK1).
T1 sequence (Q9NYK1 whole entry): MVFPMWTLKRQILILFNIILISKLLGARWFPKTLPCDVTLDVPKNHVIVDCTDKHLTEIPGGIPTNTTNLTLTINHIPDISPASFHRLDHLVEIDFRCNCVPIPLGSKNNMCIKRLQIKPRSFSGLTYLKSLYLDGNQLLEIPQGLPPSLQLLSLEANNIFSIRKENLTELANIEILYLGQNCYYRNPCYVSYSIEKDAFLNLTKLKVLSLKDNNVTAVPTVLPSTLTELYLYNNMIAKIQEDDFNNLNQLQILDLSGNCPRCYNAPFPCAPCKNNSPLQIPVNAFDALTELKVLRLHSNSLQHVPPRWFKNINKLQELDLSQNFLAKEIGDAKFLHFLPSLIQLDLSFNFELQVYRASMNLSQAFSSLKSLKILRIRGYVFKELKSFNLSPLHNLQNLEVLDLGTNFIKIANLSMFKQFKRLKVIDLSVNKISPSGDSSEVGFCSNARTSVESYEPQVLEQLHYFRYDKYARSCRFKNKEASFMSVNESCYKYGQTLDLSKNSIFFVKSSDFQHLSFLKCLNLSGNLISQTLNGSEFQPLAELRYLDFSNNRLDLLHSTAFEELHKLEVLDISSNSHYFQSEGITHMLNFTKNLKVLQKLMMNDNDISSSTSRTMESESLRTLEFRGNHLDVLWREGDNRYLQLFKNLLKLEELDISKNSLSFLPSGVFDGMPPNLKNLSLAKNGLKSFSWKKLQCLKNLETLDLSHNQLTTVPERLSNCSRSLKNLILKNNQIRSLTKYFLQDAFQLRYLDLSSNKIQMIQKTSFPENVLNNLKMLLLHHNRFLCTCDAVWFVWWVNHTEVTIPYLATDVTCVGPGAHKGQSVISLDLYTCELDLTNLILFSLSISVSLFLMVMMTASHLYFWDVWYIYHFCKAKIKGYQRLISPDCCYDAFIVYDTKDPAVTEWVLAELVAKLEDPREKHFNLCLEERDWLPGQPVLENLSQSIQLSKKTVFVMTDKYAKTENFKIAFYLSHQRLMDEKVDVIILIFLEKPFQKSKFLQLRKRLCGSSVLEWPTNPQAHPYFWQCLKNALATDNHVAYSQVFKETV
Put plainly: HEK Reporter Assay. The protocol: HEK293 reporter cells expressing human TLR7 or human TLR8 were purchased from Invivogen and vendor protocols were followed for cellular propagation and experimentation. Briefly, cells were grown to 80-85% confluence at 5% CO2 in DMEM supplemented with 10% FBS, Zeocin, and Blasticidin. Cells were then seeded in 96-well flat plates at 4×10^4 cells/well with substrate containing HEK detection medium and immunostimulatory molecules. Activity was measured using a plate reader at 620-655 nm wavelength.
On the technique in general: In a reporter assay the amount or activity of a reporter protein is the signal.

Take `CCCNC(=O)C1=Cc2ccc(-c3cnc(CN)nc3)cc2N=C(N)C1` [US20240033370, Hx No. CycBz-5]: the negative-log EC50 (pEC50) was 7.46.
